Experimental findings from patent US20240336591A1, “ORGANIC PYRIDINE-PYRAZOLE COMPOUNDS AND THEIR USES” (priority 2021, published 2024) are described below.

Experiment [1] concerns the target T1, Human PDE10A2 (Homo sapiens (Human), UniProt Q9Y233). The experiment in a line: Biochemical human PDE10A activity assay - PDE10A2 Phosphate Sensor Assay. The following applies: cGMP 3 μM substrate, PDE10A2 0.25 nM. The protocol:
Biochemical Human PDE10A Activity Assay—PDE10A2 Phosphate Sensor Assay
Semi Log compound dilutions starting at a final concentration of 50 μM were dispensed into a black 384 well plate alongside, DMSO and an Inhibited control using the Echo Acoustic dispenser. […] Data was analysed using a 4-parameter fit.

The target of experiment [2] is T1, Human PDE10A2. Briefly: Cell based human PDE10A activity assay - cAMP HTRF assay in HEK 293 rhPDE10A2 cell line. The protocol:
Semi log compound dilutions starting at a final concentration of 10 μM were dispensed into a white 384 well plate, alongside DMSO and an Inhibited control using the Tecan D300e digital dispenser. HEK 293 cells overexpressing recombinant human PDE10A2 were seeded on top of the compounds at 2500 cells/well in a volume 5 μL/well. The plate was incubated at room temperature for 60 minutes. To induce endogenous cAMP, 5 μL/well of Forskolin at a final assay concentration of 10 μM was added to the plate. The plate was incubated at room temperature for a further 45 minutes. cAMP HTRF detection reagents were added, and the plate was incubated for 60 minutes at room temperature. […] Data was analysed using a 4-parameter fit.

The mark [3] stands for this setting: Forskolin 10 μM, read-out: cAMP HTRF Assay in HEK 293 rhPDE10A2 cell line (pIC50) (converted).

Like-named read-outs stand apart in the source and are kept apart here.

T1 sequence (Q9Y233 267-1055): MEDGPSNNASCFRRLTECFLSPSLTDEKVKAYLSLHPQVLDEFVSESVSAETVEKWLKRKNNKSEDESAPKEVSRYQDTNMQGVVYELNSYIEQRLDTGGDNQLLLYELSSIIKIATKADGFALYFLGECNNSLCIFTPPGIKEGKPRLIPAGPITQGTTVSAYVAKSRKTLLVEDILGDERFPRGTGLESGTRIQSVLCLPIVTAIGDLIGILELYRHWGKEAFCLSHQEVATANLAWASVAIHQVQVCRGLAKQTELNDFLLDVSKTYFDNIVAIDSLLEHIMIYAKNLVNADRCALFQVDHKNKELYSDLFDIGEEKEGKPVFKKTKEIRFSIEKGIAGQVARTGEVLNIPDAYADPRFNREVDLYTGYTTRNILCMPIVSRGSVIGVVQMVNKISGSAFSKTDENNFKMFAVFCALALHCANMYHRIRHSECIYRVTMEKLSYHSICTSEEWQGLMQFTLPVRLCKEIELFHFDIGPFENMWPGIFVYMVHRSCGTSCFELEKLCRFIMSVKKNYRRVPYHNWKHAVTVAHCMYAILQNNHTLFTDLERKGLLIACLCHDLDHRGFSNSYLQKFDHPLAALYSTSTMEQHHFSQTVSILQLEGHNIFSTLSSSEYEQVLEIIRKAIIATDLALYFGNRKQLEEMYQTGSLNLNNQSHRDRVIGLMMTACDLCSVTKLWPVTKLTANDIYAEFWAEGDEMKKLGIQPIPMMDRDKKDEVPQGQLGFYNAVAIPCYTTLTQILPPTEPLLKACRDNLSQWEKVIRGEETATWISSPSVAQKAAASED

Regarding `CS(C)(=O)=NC(=O)c1cc2ccccc2nc1COc1ccc(-c2n[nH]cc2-c2ccncc2)cc1` [Example 31, N-[Dimethyl(oxo)-λ6-sulfanylidene]-2-[[4-[4-(4-pyridyl)-1H-pyrazol-3-yl]phenoxy]methyl]quinoline-3-carboxamide], the “PDE10A2 Phosphate Sensor Enzyme Assay (pIC50)” value on Human PDE10A2 [1] stood at 10. At Human PDE10A2 [2], the IC50 was 13.8 nM.
`CS(=O)(=O)n1cc(-c2ccncc2)c(-c2ccc(OCc3ccc4ccccc4n3)cc2)n1` [Example 6, 2-[[4-[1-Methylsulfonyl-4-(4-pyridyl)pyrazol-3-yl]phenoxy]methyl]quinoline]: on Human PDE10A2 [1], the “PDE10A2 Phosphate Sensor Enzyme Assay (pIC50)” value amounted to 8.36. Further, the IC50 on Human PDE10A2 [2] (setting [3]) is 64.6 nM.
Taken in the same sequence, the figures for `Cn1cc(-c2ccncc2)c(-c2ccc(OCc3nc4ccccc4cc3C(=O)N=S(C)(=O)C3CC3)cc2)n1` (stereo not drawn) [Example 14, N-(Cyclopropyl-methyl-oxo-λ6-sulfanylidene)-2-[[4-[1-methyl-4-(4-pyridyl)pyrazol-3-yl]phenoxy]methyl]quinoline-3-carboxamide] were 10.0 and 0.676 nM.
Taken in the same sequence, the figures for `CN(C(=O)c1cc(COc2ccc(-c3nn(C)cc3-c3ccncc3)cc2)nc2ccccc12)S(C)(=O)=O` [Example 16, N-Methyl-2-[[4-[1-methyl-4-(4-pyridyl)pyrazol-3-yl]phenoxy]methyl]-N-methylsulfonyl-quinoline-4-carboxamide] were 9.87 and 0.603 nM.
The matching figures for `Cn1cc(-c2ccncc2)c(-c2ccc(OCc3cc(C(=O)N=S(C)(C)=O)c4c(Cl)cccc4n3)cc2)n1` [Example 26, 5-Chloro-N-[Dimethyl(oxo)-λ6-sulfanylidene]-2-[[4-[1-methyl-4-(4-pyridyl)pyrazol-3-yl]phenoxy]methyl]quinoline-4-carboxamide]: 9.13 and 42.7 nM.
Consider `Cn1cc(-c2ccncc2)c(-c2ccc(OCc3cc(NC(=O)N=S(C)(C)=O)c4ccccc4n3)cc2)n1` [Example 36, 1-[Dimethyl(oxo)-λ6-sulfanylidene]-3-[2-[[4-[1-methyl-4-(4-pyridyl)pyrazol-3-yl]phenoxy]methyl]-4-quinolyl]urea], for which, at Human PDE10A2 [1], the “PDE10A2 Phosphate Sensor Enzyme Assay (pIC50)” value is on record as 9.46. Moreover, the IC50 at Human PDE10A2 [2] (setting [3]) is 16.6 nM.
For `CS(C)(=O)=NC(=O)c1cc(COc2ccc(-c3nn(CC(F)(F)F)cc3-c3ccncc3)cc2)nc2ccccc12` [Example 8, N-[Dimethyl(oxo)-λ6-sulfanylidene]-2-[[4-[4-(4-pyridyl)-1-(2,2,2-trifluoroethyl)pyrazol-3-yl]phenoxy]methyl]quinoline-4-carboxamide], the “PDE10A2 Phosphate Sensor Enzyme Assay (pIC50)” value at Human PDE10A2 [1] turned out to be 10.2. Moreover, on Human PDE10A2 [2] (setting [3]), the IC50 was 0.38 nM.
Regarding `Cn1ncc(-c2ccncc2)c1-c1ccc(OCc2cc(C(=O)O)c3ccccc3n2)cc1` [Example 1, 2-[[4-[2-Methyl-4-(4-pyridyl)pyrazol-3-yl]phenoxy]methyl]quinoline-4-carboxylic acid], on Human PDE10A2 [1], the “PDE10A2 Phosphate Sensor Enzyme Assay (pIC50)” value was 9.43. The IC50 on Human PDE10A2 [2] (setting [3]) was 1.95 nM.
Consider `Cn1cc(-c2ccncc2)c(-c2ccc(OCc3nc(N4CC(N)C4)c4ccccc4n3)cc2)n1` [Example 39, 1-[2-[[4-[1-Methyl-4-(4-pyridyl)pyrazol-3-yl]phenoxy]methyl]quinazolin-4-yl]azetidin-3-amine], for which, at Human PDE10A2 [1], the “PDE10A2 Phosphate Sensor Enzyme Assay (pIC50)” value stood at 9.46. For the same compound, the IC50 on Human PDE10A2 [2] (setting [3]) is 24.5 nM.
On to `CS(=N)(=O)c1cc(COc2ccc(-c3n[nH]cc3-c3ccncc3)cc2)nc2ccccc12` (stereo not drawn) [Example 33, Imino-methyl-oxo-[2-[[4-[4-(4-pyridyl)-1H-pyrazol-3-yl]phenoxy]methyl]-4-quinolyl]-λ6-sulfane], for which the “PDE10A2 Phosphate Sensor Enzyme Assay (pIC50)” value on Human PDE10A2 [1] was determined as 9.32. Besides, at Human PDE10A2 [2] (setting [3]), the IC50 is 8.91 nM.
Consider `Cc1ccc2nc(COc3ccc(-c4nn(C)cc4-c4ccncc4)cc3)c(C(=O)N=S(C)(C)=O)cc2c1` [Example 24, N-[Dimethyl(oxo)-λ6-sulfanylidene]-6-methyl-2-[[4-[1-methyl-4-(4-pyridyl)pyrazol-3-yl]phenoxy]methyl]quinoline-3-carboxamide], for which the IC50 on Human PDE10A2 [2] (setting [3]) was 331 nM.
